In US20250228837A1, “(2S)-1-[4-(3,4-DICHLOROPHENYL)PIPERIDIN-1-YL]-3-[2-(5-METHYL-1,3,4-OXADIAZOL-2-YL)BENZO[B]FURAN-4-YLOXY] PROPAN-2-OL OR ITS METABOLITE FOR TREATING ANXIETY DISORDERS” (Minerva Neurosciences, Inc., priority 2016, published 2025):
Entries after “also recorded” stand apart in the source; their conditions may differ. Structures can show the parent of a compound that is named as a salt. Where two headings read alike, the source gives them in different places.

What was measured:
adult subjects with MDD = test: Phase 2a randomized, double-blind, placebo- and active-controlled study; anxiety by HAM-A over 6 weeks; format: in vivo, human; conditions: for speed of onset of the reduction in total HAM-A score: 0.5 mg dose compared with the 2.5 mg dose and other arms, Week 1 vs. Week 2; for reduction in severity of anxiety symptoms compared to placebo (change from baseline in total HAM-A score): MDD patients, ITT, once daily oral 0.5 mg or 2.5 mg, 6 weeks of treatment
Procedure: In an embodiment, the effect of the treatment is measured using the Hamilton Anxiety Scale (HAM-A). The subject is asked to rate the gravity of each item using a 5-level scale—from 0 to 4, where 0 being not present and 4 being severe. The results are then collated and tabulated to determine the severity of anxiety: a HAM-A score of <17 is mild anxiety, HAM-A score of 18-24 is mild to moderate anxiety, and HAM-A score of 25-30 is moderate to severe anxiety.
A phase 2a, multicenter, multinational, randomized, double-blind, placebo- and active-controlled parallel-group study was conducted to investigate the efficacy and safety of MIN-117 in adult subjects with MDD. One of the exploratory objectives of the study was to assess effects of MIN-117 compared to placebo on anxiety as measured by change from baseline in the Hamilton Anxiety Rating Scale (HAM-A) over 6 weeks of treatment.
The study consisted of a 4-week pre-treatment phase during which subjects were washed out from antidepressant medications or other psychotropics, followed by a 6-week treatment phase, and then an end of study (EOS) follow-up visit at approximately 2-weeks after the end of the treatment phase. MIN-117 capsules of 0.5 mg and 2.5 mg strength were used in the study. The capsules were size 4 made of white hard gelatin containing the drug substance, lactose, cornstarch, low substituted hydroxypropylcelullose and hydroxypropylcelullose, and purified water.
Eighty-four eligible subjects (met the DSM-5 diagnostic criteria for moderate to severe MDD, without psychotic features) were randomized in a 1:1:1:1 ratio, to receive once daily oral doses of placebo, MIN-117 at 0.5 mg, MIN-117 at 2.5 mg, or paroxetine at 20 mg as an active comparator for 6 weeks. Paroxetine is an antidepressant of the SSRI class and is used to treat MDD, OCD, PTSD, social anxiety disorder, panic disorder, GAD, premenstrual dysphoric disorder and menopausal hot flashes. The HAM-A scale was used to measure the severity of each subject's anxiety at screening, baseline, and weeks 1, 2, 4, 6 (or early withdrawal) and EOS.
Subjects had to meet all of the following inclusion criteria to be eligible for participation in this study: • 1. Subjects must be able to read and understand the consent forms, complete study-related procedures, and communicate with the study staff. • 2. Subjects must have provided written consent to participate in the study and understand that they are free to withdraw from the study at any time. • 3. Male or female subjects must be 18 to 65 years of age, inclusive, at Screening (Visit 1). • 4. Subjects have a body mass index (BMI) of ≥18 to ≤35 kg/m^2 [BMI=weight (kg)/height (m^2)] at Screening (Visit 1) • 5. Subjects must meet Diagnostic and Statistical Manual of Mental Disorders—Fifth Edition (DSM-5) criteria for diagnosis of moderate or severe depression without psychotic features (ICD-9 codes 296.32 & 296.33; ICD-10 codes F33.1 & F33.2, respectively) at Screening based on clinical assessment and on the MINI, v7.0. • 6. Subjects have a history of at least one previous episode of depression prior to the current episode. • 7. Current major depressive episode of at least 8 weeks in duration. • 8. Subjects must have a score of ≥30 on the investigator-rated MADRS at Screening (Visit 1) and Baseline (Visit 2a). • 9. Subjects must have a score of ≥4 on the investigator-rated CGI-S at Screening (Visit 1) and Baseline (Visit 2a). • 10. Subjects must be in good general health prior to study participation with no clinically relevant abnormalities as assessed by the investigator and determined by medical history, physical examination, blood chemistry, hematology, urinalysis, and electrocardiogram (ECG). • 11. […] Male subjects who are willing to use condom for the duration of the study and until 90 days after the last dose of the study, even if they have had vasectomy, and must inform their partners about taking an investigational medication. […]

5-HT1A receptor [1] = molecular target: T1, 5-HT1A receptor (Homo sapiens, UniProt P08908); conditions: in vitro; disclosed in U.S. Pat. No. 6,720,320; cited from earlier work
T1 sequence (P08908 1-422): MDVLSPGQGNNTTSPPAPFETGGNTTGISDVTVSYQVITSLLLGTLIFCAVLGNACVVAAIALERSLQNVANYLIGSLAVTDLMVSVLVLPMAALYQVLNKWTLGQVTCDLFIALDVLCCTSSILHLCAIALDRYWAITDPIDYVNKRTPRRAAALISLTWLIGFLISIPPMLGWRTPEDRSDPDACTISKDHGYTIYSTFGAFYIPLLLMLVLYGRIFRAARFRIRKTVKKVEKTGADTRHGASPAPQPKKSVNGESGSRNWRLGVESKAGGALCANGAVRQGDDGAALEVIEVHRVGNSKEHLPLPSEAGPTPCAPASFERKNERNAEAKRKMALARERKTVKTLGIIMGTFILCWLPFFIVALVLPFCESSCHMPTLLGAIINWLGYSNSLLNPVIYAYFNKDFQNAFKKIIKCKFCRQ

5-HT1A receptor [2] = molecular target: T1, 5-HT1A receptor; conditions: from U.S. Pat. No. 6,720,320 / Minerva Form 10K, cited from earlier work
serotonin reuptake = serotonin reuptake (Homo sapiens, UniProt P31645); conditions: from U.S. Pat. No. 6,720,320 / Minerva Form 10K, cited from earlier work
Chain of serotonin reuptake (P31645 whole entry): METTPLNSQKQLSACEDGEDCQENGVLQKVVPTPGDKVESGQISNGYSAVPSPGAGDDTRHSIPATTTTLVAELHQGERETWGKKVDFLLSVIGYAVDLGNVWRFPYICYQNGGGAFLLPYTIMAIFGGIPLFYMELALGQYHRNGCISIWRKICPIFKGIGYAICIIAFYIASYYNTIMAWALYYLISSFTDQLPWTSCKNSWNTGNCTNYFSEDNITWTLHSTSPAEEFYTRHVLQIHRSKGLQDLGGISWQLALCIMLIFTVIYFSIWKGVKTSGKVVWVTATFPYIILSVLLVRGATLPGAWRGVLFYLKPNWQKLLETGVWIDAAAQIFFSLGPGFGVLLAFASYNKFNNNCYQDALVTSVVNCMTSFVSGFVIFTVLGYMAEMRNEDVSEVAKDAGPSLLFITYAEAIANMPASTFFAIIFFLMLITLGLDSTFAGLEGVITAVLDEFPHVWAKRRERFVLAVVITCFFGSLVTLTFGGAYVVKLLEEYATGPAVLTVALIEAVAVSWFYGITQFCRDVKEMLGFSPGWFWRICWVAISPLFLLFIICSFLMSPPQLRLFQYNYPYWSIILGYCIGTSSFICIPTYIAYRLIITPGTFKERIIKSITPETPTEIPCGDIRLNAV

5-HT2A receptors = 5-HT2A receptors (Homo sapiens, UniProt P28223); conditions: Minerva Form 10K, 14 Mar. 2016; cited from earlier work
Chain of 5-HT2A receptors (P28223 whole entry): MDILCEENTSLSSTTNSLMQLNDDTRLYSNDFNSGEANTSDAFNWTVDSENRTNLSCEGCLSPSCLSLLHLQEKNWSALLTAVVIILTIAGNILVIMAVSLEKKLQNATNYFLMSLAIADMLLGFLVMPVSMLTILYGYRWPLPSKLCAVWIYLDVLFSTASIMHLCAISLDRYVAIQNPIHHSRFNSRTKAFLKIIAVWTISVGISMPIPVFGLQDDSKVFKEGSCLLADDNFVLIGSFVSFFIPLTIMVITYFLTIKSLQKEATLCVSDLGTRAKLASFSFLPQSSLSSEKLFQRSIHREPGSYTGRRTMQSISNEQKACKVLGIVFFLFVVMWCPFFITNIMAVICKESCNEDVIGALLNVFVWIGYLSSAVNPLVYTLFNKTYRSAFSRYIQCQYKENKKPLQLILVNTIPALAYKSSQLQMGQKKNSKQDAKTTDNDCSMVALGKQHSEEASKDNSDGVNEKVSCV

dopamine reuptake = dopamine reuptake (Homo sapiens, UniProt Q01959); conditions: Minerva Form 10K, 14 Mar. 2016; cited from earlier work
Chain of dopamine reuptake (Q01959 whole entry): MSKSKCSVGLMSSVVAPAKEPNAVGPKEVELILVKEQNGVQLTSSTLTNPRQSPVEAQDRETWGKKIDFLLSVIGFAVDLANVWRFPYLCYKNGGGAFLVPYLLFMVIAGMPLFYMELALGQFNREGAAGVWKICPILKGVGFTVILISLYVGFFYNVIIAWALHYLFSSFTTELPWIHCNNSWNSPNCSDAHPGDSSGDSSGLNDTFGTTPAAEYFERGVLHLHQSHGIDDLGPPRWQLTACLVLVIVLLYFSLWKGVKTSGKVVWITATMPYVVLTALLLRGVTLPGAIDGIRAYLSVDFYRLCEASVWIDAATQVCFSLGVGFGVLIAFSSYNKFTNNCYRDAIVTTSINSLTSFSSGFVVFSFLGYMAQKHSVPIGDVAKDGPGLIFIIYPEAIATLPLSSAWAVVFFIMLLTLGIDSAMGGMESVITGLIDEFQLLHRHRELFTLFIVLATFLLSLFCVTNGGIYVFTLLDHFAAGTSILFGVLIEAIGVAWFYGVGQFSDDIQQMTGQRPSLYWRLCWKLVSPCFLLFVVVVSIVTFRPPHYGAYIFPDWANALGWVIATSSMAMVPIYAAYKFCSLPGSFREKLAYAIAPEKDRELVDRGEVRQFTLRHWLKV

α1A-adrenergic receptor = molecular target: T2, α1A-adrenergic receptor (Homo sapiens, UniProt P35348); conditions: Minerva Form 10K, 14 Mar. 2016; cited from earlier work
T2 sequence (P35348 1-466): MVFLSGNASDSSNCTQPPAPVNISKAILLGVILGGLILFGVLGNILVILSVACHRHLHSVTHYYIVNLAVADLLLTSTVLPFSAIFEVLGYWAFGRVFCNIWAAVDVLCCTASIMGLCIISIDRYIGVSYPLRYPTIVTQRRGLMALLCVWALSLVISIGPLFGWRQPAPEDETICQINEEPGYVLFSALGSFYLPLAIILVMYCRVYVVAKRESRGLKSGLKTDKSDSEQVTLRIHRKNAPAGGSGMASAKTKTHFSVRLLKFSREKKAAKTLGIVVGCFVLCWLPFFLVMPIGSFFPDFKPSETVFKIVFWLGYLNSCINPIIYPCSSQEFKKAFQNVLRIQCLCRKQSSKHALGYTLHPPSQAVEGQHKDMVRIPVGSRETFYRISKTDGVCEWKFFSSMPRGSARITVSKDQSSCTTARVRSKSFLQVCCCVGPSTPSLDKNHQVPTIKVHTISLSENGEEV

α1B-adrenergic receptor = molecular target: T3, α1B-adrenergic receptor (Homo sapiens, UniProt P35368); conditions: Minerva Form 10K, 14 Mar. 2016; cited from earlier work
T3 sequence (P35368 1-520): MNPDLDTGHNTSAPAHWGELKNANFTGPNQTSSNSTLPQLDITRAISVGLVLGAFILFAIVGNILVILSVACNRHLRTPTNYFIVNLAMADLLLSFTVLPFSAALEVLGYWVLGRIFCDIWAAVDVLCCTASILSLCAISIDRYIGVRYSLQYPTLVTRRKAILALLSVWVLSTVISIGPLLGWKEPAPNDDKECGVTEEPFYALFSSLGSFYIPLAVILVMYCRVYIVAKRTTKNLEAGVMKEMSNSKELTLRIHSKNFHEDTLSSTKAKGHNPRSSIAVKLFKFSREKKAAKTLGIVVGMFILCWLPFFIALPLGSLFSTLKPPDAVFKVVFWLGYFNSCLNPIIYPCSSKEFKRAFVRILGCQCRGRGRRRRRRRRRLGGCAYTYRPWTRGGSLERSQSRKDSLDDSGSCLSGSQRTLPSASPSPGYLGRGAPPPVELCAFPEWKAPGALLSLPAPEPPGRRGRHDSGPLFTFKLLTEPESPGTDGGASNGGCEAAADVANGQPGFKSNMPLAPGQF

Q: With Cc1nnc(-c2cc3c(OC[C@@H](O)CN4CCC(c5ccc(Cl)c(Cl)c5)CC4)cccc3o2)o1 [Compound I, (2S)-1-[4-(3,4-dichlorophenyl)piperidin-1-yl]-3-[2-(5-methyl-1,3,4-oxadiazol-2-yl)benzo[b]furan-4-yloxy]propan-2-ol] as the molecule, how does the “speed of onset of the reduction in total HAM-A score” value (adult subjects with MDD) read?
A: Its value is “more rapid reduction”.

Q: And the “reduction in severity of anxiety symptoms compared to placebo (change from baseline in total HAM-A score)” value (adult subjects with MDD)?
A: Its value is “reduced anxiety symptoms compared to placebo; also recorded: capable of reducing the severity of one or more anxiety symptoms”.

Q: What about the “affinity for the 5-HT1A receptor” value (5-HT1A receptor [1]) of the same molecule?
A: Its value is “selective affinity”.

Q: What about the “activity at the 5-HT1A receptor” value (5-HT1A receptor [2]) of the same molecule?
A: Its value is “antagonistic activity”.

Q: What about the “activity on serotonin (5-HT) reuptake” value (serotonin reuptake) of the same molecule?
A: The value was 5-HT reuptake inhibitory activity.

Q: For Cc1nnc(-c2cc3c(OC[C@@H](O)CN4CCC(c5ccc(Cl)c(Cl)c5)CC4)cccc3o2)o1 [MIN-117, (2S)-1-[4-(3,4-dichlorophenyl)piperidin-1-yl]-3-[2-(5-methyl-1,3,4-oxadiazol-2-yl)benzo[b]furan-4-yloxy]propan-2-ol monohydrochloride], which “speed of onset of the reduction in total HAM-A score” value (adult subjects with MDD; monohydrochloride) is on record?
A: Its value is “fastest onset”.

Q: And the “time after starting therapy to a beneficial result over placebo” value (adult subjects with MDD; 0.5 mg total daily dose)?
A: Its value is 2 weeks.

Q: And the “reduction in severity of anxiety symptoms compared to placebo (change from baseline in total HAM-A score)” value (adult subjects with MDD; monohydrochloride)?
A: Its value is “reduces anxiety symptoms; also recorded: capable of reducing the severity of one or more anxiety symptoms”.

Q: What about the tolerability (adult subjects with MDD; both doses (0.5 mg and 2.5 mg once daily, 6 weeks)) of the same molecule?
A: Its tolerability is “well tolerated”.

Q: And the “ability of both doses to reduce severity of symptoms, 0.5 mg vs 2.5 mg” value (adult subjects with MDD; by Week 6)?
A: The value was “comparable”.

Q: And the “activity at the 5-HT1A receptor” value (5-HT1A receptor [2]; monohydrochloride)?
A: Its value is “antagonist”.

Q: What about the “activity at the 5-HT2A receptor” value (5-HT2A receptors) of the same molecule?
A: Its value is “antagonist”.

Q: What about the “activity on serotonin (5-HT) reuptake” value (serotonin reuptake; monohydrochloride) of the same molecule?
A: The value was “antagonist”.

Q: And the “activity on dopamine reuptake” value (dopamine reuptake)?
A: The value was “antagonist”.

Q: What about the “affinity for the α1A-adrenergic receptor” value (α1A-adrenergic receptor) of the same molecule?
A: Its value is “having affinity”.

Q: What about the “affinity for the α1B-adrenergic receptor” value (α1B-adrenergic receptor) of the same molecule?
A: The value was “having affinity”.

Q: Which results are given for OCc1nnc(-c2cc3c(OC[C@@H](O)CN4CCC(c5ccc(Cl)c(Cl)c5)CC4)cccc3o2)o1 [Compound II, (2S)-1-[4-(3,4-dichlorophenyl)piperidin-1-yl]-3-[2-(5-hydroxymethyl-1,3,4-oxadiazol-2-yl)benzo[b]furan-4-yloxy]propan-2-ol]?
A: affinity for the 5-HT1A receptor (5-HT1A receptor [1]): selective affinity; activity at the 5-HT1A receptor (5-HT1A receptor [2]): antagonistic activity; activity on serotonin (5-HT) reuptake (serotonin reuptake): 5-HT reuptake inhibitory activity
